# Legend:
# [1] = system: human aortic vascular smooth muscle cells (HAoSMC); test: HAoSMC proliferation (BrdU uptake); type: cell-based; details: serum-supplemented media (5%), 24 hours
# [2] = cited from earlier work
sequence,measurement,setting,value
GLSKGCFGLKLDRIGSMSGLGC [CNP],reduced proliferation,[1]; 10^−5 M NP,about 30%
same,reduced proliferation,[1]; 10^−6 M NP,about 20%
same,reduced proliferation,[1]; 10^−7 M NP,about 20%
same,half-life after administration to a mammal,[2],about a minute and a half

# From patent US9079973B2, “Natriuretic polypeptides for reducing restenosis” (Mayo Foundation for Medical Education and Research, priority 2008, dated 2015)
